From patent US8790883B2, “Methods of identifying NF-κB inhibitors” (priority 2003, dated 2014)
Ends that are not written are not given here. Peptide text beside a SMILES is read from it. * marks the point of attachment. BODIPYFLEthylmaleimide = Cc1cc(C)n2c1C=C1C=CC(CCC(=O)NCCN3C(=O)CC(*)C3=O)=[N+]1[B-]2(F)F; BODIPY = not defined here

Assays:
[1] = system: 70Z/3-C3 cells
Protocol: (A) Cellular delivery of NEMO peptides mediated by conjugation with the Antennapedia peptide.
0.5×10^6 70Z/3-C3 cells in 0.5 ml were incubated at 37° C. for different times and with various concentrations of peptides as indicated in the Figure legends. The cell suspension was centrifugated at 1,000×g at room temperature and the cell pellet was then washed three times with PBS buffer (1 ml), and finally was resuspended with 500 μl of PBS buffer containing 0.1% sodium azide. Fluorescence analysis was performed with a FACSCalibur (BD Biosciences) and a minimum of 15,000 events per sample was selected. All experiments were performed in duplicates.

[2] = Cytotoxicity of NLM-DR derived peptides (MTS, FACS, microscope), Table 2
[3] = system: LPS-induced NF-κB activation; assay: More stringent NF-κB inhibition assay, second procedure: peptide internalization, washing, 24 h growth, then LPS; type: cell-based, murine; details: 10 μM peptide
From the text: Left panels show a helical wheel diagram of CC2 (A) and LZ (B) peptides. The view is from the top the molecule. The (a) through (g) positions, which are an essential feature of coiled coil sequence (Vinson, 2002, Mol. Cell. Biol.) represent sequential positions in each peptide sequence. The first (a) and fourth (d) positions that are generally occupied by hydrophobic amino acids constitute the hydrophobic core for parallel as well as antiparallel-coiled coils. Mutations that were introduced in (a) positions of the CC2 variant (BODIPY-Ant-CC2 (Mu); shown as residues 6-40 of SEQ ID NO:3, with glycine mutations corresponding to residues 6-40 of SEQ ID NO:5) or in (d) positions of the LZ variant (BODIPY-Ant-(Mu) are shown. In the right panels, 70Z3-C3 cells were incubated for 2 hours in the absence (control) or in the presence of 10 μM of cell permeable wild type (BODIPY-Ant-CC2 (WT)) or mutant (BODIPY-Ant-CC2 (Mu)) CC2 peptides (A) or wild type (BODIPY-Ant-LZ (WT)) or mutant (BODIPY-Ant-(Mu)) LZ peptides (B). The cells were then extensively washed to remove the excess peptide which had not been internalized and the cells were then diluted three times and allowed to grow for 24 hours before treatment for 5 hours with (+) or without LPS (−). NF-κB activity was measured using the β-galactosidase assay. Error bars represent the standard deviation of two independent experiments.
(A) Sequence alignment of the NEMO-derived LZ (residues 301-336 of SEQ ID NO: 12) and the GCN4 peptides (residues 23-55 of SEQ ID NO:8). Both coiled-coil motifs were aligned using clustalX. Identical and similar amino acid residues (shaded) are indicated by (!) or (*), respectively. (B) Overview and helical wheel diagram of the GCN4 coiled-coil (top view). The amino-acid sequence of GCN4 is shown with its corresponding [a-g] positions and residues that differ from the corresponding NEMO-derived LZ sequence are boxed according to their degree of conservation. Identical (open square) and similar residues (open triangle) are indicated. […] NF-κB activity was measured using the b-galactosidase assay. […]

[4] = Circular dichroism studies of helix stability; type: physicochemical
From the text: From circular dichroism studies (CD), it appears that CC2 and LZ peptides adopt a helicoidal structure, depending on their concentration. […] RMN and Rayon X Diffraction studies have confirmed the structure of CC2.

[5] = Analytical gel filtration, oligomeric states of peptides; type: physicochemical; details: 10 μM, Superdex 75, buffer with 0.1 mM DDM
Protocol: All peptides were loaded at a 10 μM concentration on a superdex 75 HR10/30 column equilibrated in a buffer containing 0.1 mM DDM to improve recovery (see “Materials and methods”). Chromatographic profiles of the CC2 mutant (dashed line) and the CC2 wild type (solid line) fused (BODIPY-Ant-CC2 (WT), BODIPY-Ant-CC2 (Mu), or not fused to the antennapedia sequence (CC2 (WT), CC2 (Mu)) are shown in left panels, and elution profiles of the LZ mutant (dashed line) and the wild type (solid line) fused (BODIPY-Ant-LZ (WT), BODIPY-Ant-LZ (Mu), or not fused to the antennapedia sequence (LZ (WT), LZ (Mu)) are represented in right panels. Elution volumes of globular protein markers are indicated by arrows: Oval, ovalbumin (43 kDa); Chym, chymotrypsinogene A (25 kDa); Ribo, Ribonuclease (13.4 kDa) and Apro, aprotinin (6.5 kDa).
The oligomeric states of peptides were determined by filtration as described in Traincard et al., 2003. In brief, 500 μl samples were loaded on a SUPERDEX™ 75 HR 10/30 column equilibrated in 50 mM Tris-HCl pH 8.0 containing 200 mM NaCl and 0.1 mM DDM, at a constant flow rate of 0.4 ml/min. The presence of the DDM detergent was added in the equilibrium buffer to minimize the adsorption in the column and to increase the peptide recovery. The column was calibrated in the same equilibrium buffer with blue dextran 2000 (void volume), dithioerythritol (total volume), bovine serum albumin (67 kDa, Rs=35.2 Å), ovalbumine (43 kDa, Rs=27.5 Å), chymotrypsinogen A (25 kDa, Rs=21.1 Å), ribonuclease A (13.7 kDa, Rs=16.4 Å), cytochrome C (12.4 kDa, Rs=17.7 Å) and aprotinin (6.5 KDa, Rs=13.5 Å).

[6] = system: LPS-induced NF-κB activation; assay: NF-κB inhibition assay, first procedure: LPS-induced NF-κB dependent β-galactosidase reporter in 70Z/3-C3 cells; type: cell-based, murine; details: peptide 2 h, LPS 3 h, 70Z3-C3 cells (FIG. 3D)
Protocol: The resulting cell line, 70Z3-C3, was incubated for 2 hours in the absence or in the presence of 20 μM of antennapedia peptide (Ant), or BODIPY-labeled antennapedia peptide (BODIPY-Ant), or BODIPY-labeled antennapedia peptide coupled to CC2 (BODIPY-Ant-CC2) or LZ (BODIPY-Ant-LZ) peptides, After peptide internalization, cells were treated for 5 hours with LPS (3 μg/ml, (+) in left panel) or untreated (right panel and (−) in left panel) and the NF-κB activity was measured by β-galactosidase assay. Error bars represent the standard deviation of three separate experiments. (B) Concentration dependence of inhibition of LPS-induced NF-κB activation by BODIPY-Ant-CC2 peptide (left panel) or BODIPY-Ant-LZ peptide (right panel). Cells were treated as in (A) but with different concentration of peptide as indicated. The potential of each peptide to inhibit LPS-induced NF-κB activation was measured by determining the IC50 value that correspond to 50% inhibition of LPS-induced NF-κB activation as compared to the control (no peptide) (C). (D) Effect of the N-fusion sequence of antennapedia on the inhibition of NF-κB activation. Control (no peptide) or CC2, or LZ peptides, with (BODIPY-ANT-CC2, BODIPY-ANT-LZ) or without the antennapedia sequence at the N-terminus (CC2, LZ) were incubated for 2 hours with 70Z3-C3 cells followed with (+) or without (−) the LPS-treatment for 3 hours. NF-κB activity was then measured by β-galactosidase assay.
In a first procedure 2.2×10^5 70Z/3-C3 cells in 220 μl of RPMI 1640 supplemented with 10% fetal calf serum (FCS) and 50 μM β-mercaptoethanol were placed in a 96-well plate and incubated with various concentrations of peptide (0 to 20 μM) at 37° C. in 5% CO2 incubator. After two hours an equal portion (100 μl) of each cell sample transferred in two wells containing each 10^5 cells. One aliquot of cells was then treated for 5 hours with lipopolysaccharides from Salmonella abortus (Sigma) at 0.5 μg/ml final concentration, and the other one left-treated. After 5 hours, cells were centrifuged at 400×g for 5 min at room temperature and the cell pellets were washed three times with cold PBS (250 μl) by centrifugation. Cells were then lysed in the lysis buffer (25 mM tris-phosphate buffer at pH 7.8 containing 8 mM magnesium chloride, 1 mM dithioerythreitol, 1% Triton X-100, 15% glycerol and a protease inhibitor mixture (Roche)), and samples were centrifuged at 4° C. for 20 min to clarify the lysate. The supernatant was then kept on ice, and 30 μl was then assayed to measure the β-galactosidase activity with a plate luminometer (Berthold) using the GALACTON-STAR™ as chemiluminescent substrate (BD Biosciences Clontech, Bronstein et al., 1989). Background of reaction was measured by mixing for 1 hour 30 μl of lysis buffer with the reaction buffer (196 μl) and the GALACTON-STAR™ substrate (4 μl) provided by BD Biosciences. In a second procedure and a more stringent assay, 70Z/3-C3 cells (2.2×105 in 220 μl medium) were centrifuged at 400×g at room temperature after peptide internalization for 2 hours, and cell pellets were washed three times with 200 μl of PBS by centrifugation. Cells were then diluted three times with complete medium, and allowed to grow for at least 24 hours. The following steps are identical to the first procedure.
To analyze the inhibition potential of LPS-induced NF-κB activation by cell permeable BODIPY-Ant-CC2 and BODIPY-Ant-LZ peptides, the present inventors stably transfected the murine pre-B 70Z3 cell line with p12XlacZ-kB, which bears the β-galactosidase reporter gene under the control of the NF-κB transcription factor.

Row | Molecule | Cellular uptake relative efficiency (FACS) [1] | Cytotoxicity Cell morphology FACS [2] | Cytotoxicity Cell morphology Microscope [2] | also measured
1 | B-CRQIKIWFQNRRMKWKKSKGMQLEDLRQQGQQAEEAGVAKQELGDKLKEEAEQHKIV (C(BODIPY)RQIKIWFQNRRMKWKKSKGMQLEDLRQQGQQAEEAGVAKQELGDKLKEEAEQHKIV-NH2; not fully specified (N-terminus); printed as B-CRQIKIWFQNRRMKWKKSKGMQLEDLRQQGQQAEEAGVAKQELGDKLKEEAEQHKIV; reading uncertain) [BODIPY-Ant-CC2 (Mu)] | – | – | – | Effect on LPS-induced NF-κB activation [3]: did not affect the NF-κB activation
2 | SKGMQLEDLRQQLQQAEEALVAKQELIDKLKEEAEQHKIV [CC2 (WT)] | – | – | – | Helix stability by circular dichroism [4]: helix more stable than LZ; Oligomeric state by gel filtration [5]: trimer; LPS-induced NF-κB activation, peptides not fused to antennapedia [6]: same level of activation as the control

Second part, led by results:

Row | Cellular uptake relative efficiency (FACS) [1] | Molecule | Cytotoxicity Cell morphology FACS [2] | Cytotoxicity Cell morphology Microscope [2] | also measured
3 | + | CC[C@H](C)[C@H](NC(=O)[C@H](CC(=O)O)NC(=O)[C@H](C)NC(=O)[C@H](CCC(N)=O)NC(=O)[C@H](C)NC(=O)[C@H](CCCCN)NC(=O)[C@H](CC(C)C)NC(=O)[C@H](CCCCN)NC(=O)[C@H](CCCCN)NC(=O)[C@H](Cc1c[nH]c2ccccc12)NC(=O)[C@H](CCCCN)NC(=O)[C@H](CCSC)NC(=O)[C@H](CCCNC(=N)N)NC(=O)[C@H](CCCNC(=N)N)NC(=O)[C@H](CC(N)=O)NC(=O)[C@H](CCC(N)=O)NC(=O)[C@H](Cc1ccccc1)NC(=O)[C@H](Cc1c[nH]c2ccccc12)NC(=O)[C@@H](NC(=O)[C@H](CCCCN)NC(=O)[C@@H](NC(=O)[C@H](CCC(N)=O)NC(=O)[C@H](CCCNC(=N)N)NC(=O)[C@H](CSC1CC(=O)N(CCNC(=O)CCC2=[N+]3C(=Cc4c(C)cc(C)n4[B-]3(F)F)C=C2)C1=O)NC(C)=O)[C@@H](C)CC)[C@@H](C)CC)C(=O)N[C@@H](Cc1ccc(O)cc1)C(=O)N[C@@H](CCCCN)C(=O)N[C@@H](C)C(=O)N[C@@H](CCCNC(=N)N)C(=O)N[C@@H](Cc1ccccc1)C(=O)N[C@@H](CCC(N)=O)C(=O)N[C@@H](C)C(=O)N[C@@H](CCC(=O)O)C(=O)N[C@@H](CCCNC(=N)N)C(=O)N[C@@H](Cc1c[nH]cn1)C(=O)N[C@@H](C)C(=O)N[C@@H](CCCNC(=N)N)C(=O)N[C@@H](CCC(=O)O)C(=O)N[C@@H](CCCCN)C(N)=O (stereo partly drawn) [BODIPY-Ant-NLM-DR] (Ac-C(BODIPYFLEthylmaleimide)RQIKIWFQNRRMKWKKLKAQADIYKARFQAERHAREK-NH2) | – | – | –
4 | ++++ | CC[C@H](C)[C@H](NC(=O)[C@H](CC(=O)O)NC(=O)[C@H](C)NC(=O)[C@H](CCC(N)=O)NC(=O)[C@H](C)NC(=O)[C@H](CCCCN)NC(=O)[C@H](CC(C)C)NC(=O)[C@H](CCCNC(=N)N)NC(=O)[C@H](CCCNC(=N)N)NC(=O)[C@H](CCCNC(=N)N)NC(=O)[C@H](CCCNC(=N)N)NC(=O)[C@H](CCCNC(=N)N)NC(=O)[C@H](CCCNC(=N)N)NC(=O)[C@H](CCCNC(=N)N)NC(=O)[C@H](CSC1CC(=O)N(CCNC(=O)CCC2=[N+]3C(=Cc4c(C)cc(C)n4[B-]3(F)F)C=C2)C1=O)NC(C)=O)C(=O)N[C@@H](Cc1ccc(O)cc1)C(=O)N[C@@H](CCCCN)C(=O)N[C@@H](C)C(=O)N[C@@H](CCCNC(=N)N)C(=O)N[C@@H](Cc1ccccc1)C(=O)N[C@@H](CCC(N)=O)C(=O)N[C@@H](C)C(=O)N[C@@H](CCC(=O)O)C(=O)N[C@@H](CCCNC(=N)N)C(=O)N[C@@H](Cc1c[nH]cn1)C(=O)N[C@@H](C)C(=O)N[C@@H](CCCNC(=N)N)C(=O)N[C@@H](CCC(=O)O)C(=O)N[C@@H](CCCCN)C(N)=O (stereo partly drawn) [BODIPY-R7-NLM-DR] (Ac-C(BODIPYFLEthylmaleimide)RRRRRRRLKAQADIYKARFQAERHAREK-NH2) | no | no | –
5 | ++ | CC[C@H](C)[C@H](NC(=O)[C@H](CC(=O)O)NC(=O)[C@H](C)NC(=O)[C@H](CCC(N)=O)NC(=O)[C@H](C)NC(=O)[C@H](CCCCN)NC(=O)[C@H](CC(C)C)NC(=O)[C@H](CCCNC(=N)N)NC(=O)[C@H](CCCNC(=N)N)NC(=O)[C@H](CCCNC(=N)N)NC(=O)[C@H](CCCNC(=N)N)NC(=O)[C@H](CCCNC(=N)N)NC(=O)[C@H](CCCNC(=N)N)NC(=O)[C@H](CCCNC(=N)N)NC(=O)[C@H](CCCNC(=N)N)NC(=O)[C@H](CCCNC(=N)N)NC(=O)[C@H](CSC1CC(=O)N(CCNC(=O)CCC2=[N+]3C(=Cc4c(C)cc(C)n4[B-]3(F)F)C=C2)C1=O)NC(C)=O)C(=O)N[C@@H](Cc1ccc(O)cc1)C(=O)N[C@@H](CCCCN)C(=O)N[C@@H](C)C(=O)N[C@@H](CCCNC(=N)N)C(=O)N[C@@H](Cc1ccccc1)C(=O)N[C@@H](CCC(N)=O)C(=O)N[C@@H](C)C(=O)N[C@@H](CCC(=O)O)C(=O)N[C@@H](CCCNC(=N)N)C(=O)N[C@@H](Cc1c[nH]cn1)C(=O)N[C@@H](C)C(=O)N[C@@H](CCCNC(=N)N)C(=O)N[C@@H](CCC(=O)O)C(=O)N[C@@H](CCCCN)C(N)=O (stereo partly drawn) [BODIPY-R9-NLM-DR] (Ac-C(BODIPYFLEthylmaleimide)RRRRRRRRRLKAQADIYKARFQAERHAREK-NH2) | no | no | Cytotoxicity MTS Assay ([2]; MTS cell proliferation assay (Promega)): no
